The target of assay [1] is Peptidyl-prolyl cis-trans isomerase NIMA-interacting 1 (Homo sapiens, UniProt Q13526, S16A/Y23A). In words: Binding affinity to N-terminal MBP fused and Texas-red-labeled full-length human Pin1 S16A/Y23A mutant expressed in Escherichia coli assessed as increase in fluorescence anisotropy by spectrofluorimetry. As to conditions: read-out: Kd.
Assay [2] has as its system Peptidyl-prolyl cis-trans isomerase NIMA-interacting 1 (Homo sapiens), Q13526 [S16A,Y23A]. In words: Binding affinity to N-terminal MBP fused and Texas-red-labeled full-length human Pin1 S16A/Y23A mutant expressed in Escherichia coli assessed as increase in fluorescence anisotropy at 5 uM by spectrofluorimetry.

SMILES strings stand for the structures. Where only a bound is given, the exact number is not on record here.

As to `C[C@@H]1NC(=O)[C@H](CCCNC(=N)N)NC(=O)[C@H](Cc2ccc3ccccc3c2)NC(=O)[C@H]2CCCCN2C(=O)[C@@H]([C@H](C)O)NC(=O)[C@H](c2ccccc2)NC(=O)[C@H](Cc2cnc[nH]2)NC(=O)c2cc3cc(c2)C(=O)NC[C@H](NC(=O)[C@@H](C)NC1=O)C(=O)N[C@@H](Cc1ccccc1)C(=O)N[C@@H](Cc1ccc2ccccc2c1)C(=O)N[C@@H](CCCNC(=N)N)C(=O)N[C@@H](CCCNC(=N)N)C(=O)N[C@@H](CCCNC(=N)N)C(=O)N[C@@H](CCCNC(=N)N)C(=O)N[C@H](C(=O)N[C@@H](CCCCN)C(=O)O)CNC3=O`, the Kd in assay [1] turned out to be 1400 nM. Also, in assay [2], the Activity was greater than 50%.
`C[C@@H]1NC(=O)[C@H](CCCNC(=N)N)NC(=O)[C@H](Cc2ccc3ccccc3c2)NC(=O)[C@H]2CCCCN2C(=O)[C@@H](CC(=O)O)NC(=O)CN(C)C(=O)[C@@H]2CCCN2C(=O)c2cc3cc(c2)C(=O)NC[C@H](NC(=O)[C@@H](C)NC1=O)C(=O)N[C@@H](Cc1ccccc1)C(=O)N[C@@H](Cc1ccc2ccccc2c1)C(=O)N[C@@H](CCCNC(=N)N)C(=O)N[C@@H](CCCNC(=N)N)C(=O)N[C@@H](CCCNC(=N)N)C(=O)N[C@@H](CCCNC(=N)N)C(=O)N[C@H](C(=O)N[C@@H](CCCCN)C(=O)O)CNC3=O` (stereo in doubt; 10): the dissociation constant (Kd) in assay [1] worked out at 3420 nM.
Consider `C[C@@H]1NC(=O)[C@H](CCCNC(=N)N)NC(=O)[C@H](Cc2ccc3ccccc3c2)NC(=O)[C@H]2CCCCN2C(=O)[C@@H](CC(=O)O)NC(=O)CN(C)C(=O)[C@@H]2CCCN2C(=O)c2cc3cc(c2)C(=O)NC[C@@H](C(=O)N[C@@H](CCCCN)C(=O)O)NC(=O)[C@H](CCCNC(=N)N)NC(=O)[C@H](CCCNC(=N)N)NC(=O)[C@H](CCCNC(=N)N)NC(=O)[C@H](CCCNC(=N)N)NC(=O)[C@H](Cc2ccc4ccccc4c2)NC(=O)[C@H](Cc2ccccc2)NC(=O)[C@H](CNC3=O)NC(=O)CCNC1=O`, for which the Kd in assay [1] was found to be 2080 nM.
As for `C[C@@H]1NC(=O)[C@H](CCCNC(=N)N)NC(=O)[C@H](Cc2ccc3ccccc3c2)NC(=O)[C@H]2CCCCN2C(=O)[C@@H](CC(=O)O)NC(=O)CN(C)C(=O)[C@@H]2CCCN2C(=O)c2cc3cc(c2)C(=O)NC[C@H](NC(=O)[C@@H](C)NC(=O)[C@@H](C)NC1=O)C(=O)N[C@@H](Cc1ccccc1)C(=O)N[C@@H](Cc1ccc2ccccc2c1)C(=O)N[C@@H](CCCNC(=N)N)C(=O)N[C@@H](CCCNC(=N)N)C(=O)N[C@@H](CCCNC(=N)N)C(=O)N[C@@H](CCCNC(=N)N)C(=O)N[C@H](C(=O)N[C@@H](CCCCN)C(=O)O)CNC3=O`, the Kd in assay [1] was found to be 2490 nM.
Take `C[C@@H]1NC(=O)[C@H](CCCNC(=N)N)NC(=O)[C@H](Cc2ccc3ccccc3c2)NC(=O)[C@H]2CCCCN2C(=O)[C@@H]([C@H](C)O)NC(=O)CNC(=O)[C@H](Cc2ccccc2)N(C)C(=O)c2cc3cc(c2)C(=O)NC[C@H](NC(=O)[C@@H](C)NC1=O)C(=O)N[C@@H](Cc1ccccc1)C(=O)N[C@@H](Cc1ccc2ccccc2c1)C(=O)N[C@@H](CCCNC(=N)N)C(=O)N[C@@H](CCCNC(=N)N)C(=O)N[C@@H](CCCNC(=N)N)C(=O)N[C@@H](CCCNC(=N)N)C(=O)N[C@H](C(=O)N[C@@H](CCCCN)C(=O)O)CNC3=O`: the Kd in assay [1] worked out at 1080 nM. The Activity in assay [2] was greater than 50%.
`C[C@@H]1NC(=O)CCNC(=O)[C@H](CCCNC(=N)N)NC(=O)[C@H](Cc2ccc3ccccc3c2)NC(=O)[C@H]2CCCCN2C(=O)[C@@H](CC(=O)O)NC(=O)CN(C)C(=O)[C@@H]2CCCN2C(=O)c2cc3cc(c2)C(=O)NC[C@@H](C(=O)N[C@@H](CCCCN)C(=O)O)NC(=O)[C@H](CCCNC(=N)N)NC(=O)[C@H](CCCNC(=N)N)NC(=O)[C@H](CCCNC(=N)N)NC(=O)[C@H](CCCNC(=N)N)NC(=O)[C@H](Cc2ccc4ccccc4c2)NC(=O)[C@H](Cc2ccccc2)NC(=O)[C@H](CNC3=O)NC1=O`: the Kd in assay [1] is 1750 nM.
As to `C[C@@H]1NC(=O)[C@H](CCCNC(=N)N)NC(=O)[C@H](Cc2ccc3ccccc3c2)NC(=O)[C@H]2CCCCN2C(=O)[C@@H]([C@H](C)O)NC(=O)[C@H](Cc2ccc(F)cc2)NC(=O)[C@@H](Cc2ccccc2)NC(=O)c2cc3cc(c2)C(=O)NC[C@H](NC(=O)[C@@H](Cc2ccccc2)NC1=O)C(=O)N[C@@H](CCCNC(=N)N)C(=O)N[C@@H](CCCNC(=N)N)C(=O)N[C@@H](Cc1ccc2ccccc2c1)C(=O)N[C@@H](Cc1ccccc1)C(=O)N[C@@H](CCCNC(=N)N)C(=O)N[C@@H](CCCNC(=N)N)C(=O)N[C@H](C(=O)N[C@@H](CCCCN)C(=O)O)CNC3=O`, the Kd in assay [1] is 1380 nM.
Turning to `C[C@@H]1NC(=O)[C@H](CCCNC(=N)N)NC(=O)[C@H](Cc2ccc3ccccc3c2)NC(=O)[C@H]2CCCCN2C(=O)[C@@H](CC(=O)O)NC(=O)CN(C)C(=O)[C@@H]2CCCN2C(=O)c2cc3cc(c2)C(=O)NC[C@@H](C(=O)N[C@@H](CCCCN)C(=O)O)NC(=O)[C@H](CCCNC(=N)N)NC(=O)[C@H](CCCNC(=N)N)NC(=O)[C@H](CCCNC(=N)N)NC(=O)[C@H](CCCNC(=N)N)NC(=O)[C@H](Cc2ccc4ccccc4c2)NC(=O)[C@H](Cc2ccccc2)NC(=O)[C@H](CNC3=O)NC1=O`, in assay [1], the Kd was 2590 nM.
As for `C[C@@H]1NC(=O)[C@H](CCCNC(=N)N)NC(=O)[C@H](Cc2ccc3ccccc3c2)NC(=O)[C@H]2CCCCN2C(=O)[C@@H]([C@H](C)O)NC(=O)[C@H](Cc2ccc(F)cc2)NC(=O)[C@@H](Cc2ccccc2)NC(=O)c2cc3cc(c2)C(=O)NC[C@H](NC(=O)[C@@H](Cc2ccccc2)NC1=O)C(=O)N[C@@H](CCCNC(=N)N)C(=O)N[C@@H](CCCNC(=N)N)C(=O)N[C@@H](CCCNC(=N)N)C(=O)N[C@@H](CCCNC(=N)N)C(=O)N[C@@H](Cc1ccc2ccccc2c1)C(=O)N[C@@H](Cc1ccccc1)C(=O)N[C@H](C(=O)N[C@@H](CCCCN)C(=O)O)CNC3=O`, the Kd in assay [1] was determined as 980 nM.
Regarding `C[C@H]1NC(=O)[C@H](Cc2ccc(O)cc2)NC(=O)[C@H](CCCNC(=N)N)NC(=O)[C@H](Cc2ccc3ccccc3c2)NC(=O)[C@H]2CCCCN2C(=O)[C@@H](CC(=O)O)NC(=O)CN(C)C(=O)[C@@H]2CCCN2C(=O)c2cc3cc(c2)C(=O)NC[C@H](NC1=O)C(=O)N[C@@H](Cc1ccccc1)C(=O)N[C@@H](Cc1ccc2ccccc2c1)C(=O)N[C@@H](CCCNC(=N)N)C(=O)N[C@@H](CCCNC(=N)N)C(=O)N[C@@H](CCCNC(=N)N)C(=O)N[C@@H](CCCNC(=N)N)C(=O)N[C@H](C(=O)N[C@@H](CCCCN)C(=O)O)CNC3=O`, the Kd in assay [1] was found to be 2170 nM.
The same measure, in the same setting: the value for `C[C@@H]1NC(=O)[C@H](CCCNC(=N)N)NC(=O)[C@H](Cc2ccc3ccccc3c2)NC(=O)[C@H]2CCCCN2C(=O)[C@@H]([C@H](C)O)NC(=O)[C@H](Cc2ccc(F)cc2)NC(=O)[C@@H](Cc2ccccc2)NC(=O)c2cc3cc(c2)C(=O)NC[C@H](NC(=O)[C@@H](Cc2ccccc2)NC1=O)C(=O)N[C@H](CCCNC(=N)N)C(=O)N[C@@H](CCCNC(=N)N)C(=O)N[C@H](CCCNC(=N)N)C(=O)N[C@@H](CCCNC(=N)N)C(=O)N[C@@H](Cc1ccc2ccccc2c1)C(=O)N[C@@H](Cc1ccccc1)C(=O)N[C@H](C(=O)N[C@@H](CCCCN)C(=O)O)CNC3=O` was 3100 nM.
Take `CC(C)[C@@H]1NC(=O)[C@H](CCCNC(=N)N)NC(=O)[C@H](Cc2ccc3ccccc3c2)NC(=O)[C@H]2CCCCN2C(=O)[C@@H](CC(=O)O)NC(=O)CN(C)C(=O)[C@@H]2CCCN2C(=O)c2cc3cc(c2)C(=O)NC[C@H](NC(=O)[C@@H](C)NC1=O)C(=O)N[C@@H](Cc1ccccc1)C(=O)N[C@@H](Cc1ccc2ccccc2c1)C(=O)N[C@@H](CCCNC(=N)N)C(=O)N[C@@H](CCCNC(=N)N)C(=O)N[C@@H](CCCNC(=N)N)C(=O)N[C@@H](CCCNC(=N)N)C(=O)N[C@H](C(=O)N[C@@H](CCCCN)C(=O)O)CNC3=O`: the Kd in assay [1] is 1750 nM.
On to `C[C@@H]1NC(=O)[C@H](CCCNC(=N)N)NC(=O)[C@H](Cc2ccc3ccccc3c2)NC(=O)[C@H]2CCCCN2C(=O)[C@@H](CCC(=O)O)NC(=O)[C@H](Cc2cnc[nH]2)NC(=O)[C@H](c2ccccc2)NC(=O)c2cc3cc(c2)C(=O)NC[C@H](NC(=O)[C@@H](C)NC1=O)C(=O)N[C@@H](Cc1ccccc1)C(=O)N[C@@H](Cc1ccc2ccccc2c1)C(=O)N[C@@H](CCCNC(=N)N)C(=O)N[C@@H](CCCNC(=N)N)C(=O)N[C@@H](CCCNC(=N)N)C(=O)N[C@@H](CCCNC(=N)N)C(=O)N[C@H](C(=O)N[C@@H](CCCCN)C(=O)O)CNC3=O`, for which, in assay [1], the Kd was 1470 nM. In assay [2], the Activity was greater than 50%.
Turning to `C[C@H]1NC(=O)[C@H](CC(=O)O)NC(=O)[C@H](CCCNC(=N)N)NC(=O)[C@H](Cc2ccc3ccccc3c2)NC(=O)[C@H]2CCCCN2C(=O)[C@@H](CC(=O)O)NC(=O)CN(C)C(=O)[C@@H]2CCCN2C(=O)c2cc3cc(c2)C(=O)NC[C@H](NC1=O)C(=O)N[C@@H](Cc1ccccc1)C(=O)N[C@@H](Cc1ccc2ccccc2c1)C(=O)N[C@@H](CCCNC(=N)N)C(=O)N[C@@H](CCCNC(=N)N)C(=O)N[C@@H](CCCNC(=N)N)C(=O)N[C@@H](CCCNC(=N)N)C(=O)N[C@H](C(=O)N[C@@H](CCCCN)C(=O)O)CNC3=O`, the Kd in assay [1] came to 3190 nM.
For the compound `CN1CC(=O)N[C@H](CC(=O)O)C(=O)N2CCCC[C@@H]2C(=O)N[C@@H](Cc2ccc3ccccc3c2)C(=O)N[C@@H](CCCNC(=N)N)C(=O)NCCC(=O)NCCC(=O)N[C@H]2CNC(=O)c3cc(cc(c3)C(=O)N3CCC[C@H]3C1=O)C(=O)NC[C@@H](C(=O)N[C@@H](CCCCN)C(=O)O)NC(=O)[C@H](CCCNC(=N)N)NC(=O)[C@H](CCCNC(=N)N)NC(=O)[C@H](CCCNC(=N)N)NC(=O)[C@H](CCCNC(=N)N)NC(=O)[C@H](Cc1ccc3ccccc3c1)NC(=O)[C@H](Cc1ccccc1)NC2=O`, the Kd in assay [1] was determined as 4830 nM.

The values above are taken from ChEMBL document CHEMBL3588828, “A Selective, Cell-Permeable Nonphosphorylated Bicyclic Peptidyl Inhibitor against Peptidyl-Prolyl Isomerase Pin1” (J Med Chem, 2015).
